The values below come from ChEMBL document CHEMBL3526096, “Species differences in biliary clearance and possible relevance of hepatic uptake and efflux transporters involvement” (Drug Metab Dispos, 2013).

Data set [1] deals with Rattus norvegicus. The experiment in a line: Unbound biliary clearance in Sprague-Dawley rat at 8 uCi, iv. Type of data set: ADME, organism-based, Bile. The note with it: in vivo.
Data set [2] in a line: Drug excretion in human assessed as compound excreted into bile at 20 mg, iv after 24 hrs by T-tube method. Type of data set: ADME, organism-based. The note with it: read-out: Drug excretion.
Data set [3] deals with Rattus norvegicus. Put plainly: Total biliary clearance in Sprague-Dawley rat at 8 uCi, iv. It is filed as ADME, organism-based, Bile. The note with it: in vivo.
The subject of data set [4] is Homo sapiens. Put plainly: Unbound biliary clearance in human at 20 mg, iv after 24 hrs by T-tube method. Type of data set: ADME, organism-based, Bile. The note with it: in vivo.
The test system of data set [5] is Homo sapiens. The experiment in a line: Total biliary clearance in human at 20 mg, iv after 24 hrs by T-tube method. It is filed as ADME, organism-based, Bile. The note with it: in vivo.
The nature of data set [6]: Drug excretion in iv dosed rat assessed as compound excreted into bile. It is filed as ADME, organism-based. The conditions noted are these: read-out: Drug excretion.
Data set [7] can be described thus: Drug excretion in human assessed as compound excreted into bile at 2 gm, iv after 24 hrs by T-tube method. The note with it: read-out: Drug excretion. It is filed as ADME, organism-based.
The subject of data set [8] is Canis familiaris. The experiment in a line: Total biliary clearance in beagle dog at 20 mg/kg, iv. Type of data set: ADME, organism-based, Canis lupus familiaris, Bile. On the set-up: dose 20 mg/kg, route intravenous. The note with it: in vivo.
Data set [9] deals with Homo sapiens. The experiment in a line: Unbound biliary clearance in human at 1 gm, iv after 24 hrs by T-tube method. Type of data set: ADME, organism-based, Bile. The note with it: in vivo.
In data set [10] the test system is Rattus norvegicus. Put plainly: Unbound biliary clearance in Sprague-Dawley rat at 20 mg/kg, iv. It is filed as ADME, organism-based, Bile. Also on record: dose 20 mg/kg, route intravenous. The note with it: in vivo.
In data set [11] the test system is Canis familiaris. The experiment in a line: Unbound biliary clearance in beagle dog at 20 mg/kg, iv. The note with it: in vivo. Also on record: dose 20 mg/kg, route intravenous. It is filed as ADME, organism-based, Canis lupus familiaris, Bile.
The subject of data set [12] is Rattus norvegicus. Put plainly: Total biliary clearance in Sprague-Dawley rat at 20 mg/kg, iv. Type of data set: ADME, organism-based, Bile. Also on record: dose 20 mg/kg, route intravenous. The conditions noted are these: in vivo.
A short description of data set [13]: Drug excretion in human assessed as compound excreted into bile at 1 gm, iv after 24 hrs by T-tube method. The conditions noted are these: read-out: Drug excretion. Type of data set: ADME, organism-based.
Data set [14] can be described thus: Drug excretion in beagle dog assessed as compound excreted into bile at 20 mg/kg, iv. It is filed as ADME, organism-based, Canis lupus familiaris. Also on record: dose 20 mg/kg, route intravenous. The conditions noted are these: read-out: Drug excretion.
A short description of data set [15]: Drug excretion in Sprague-Dawley rat assessed as compound excreted into bile at 20 mg/kg, iv. Type of data set: ADME, organism-based. On the set-up: dose 20 mg/kg, route intravenous. The note with it: read-out: Drug excretion.
Data set [16] deals with Homo sapiens. Put plainly: Total biliary clearance in human at 1 gm, iv after 24 hrs by T-tube method. Type of data set: ADME, organism-based, Bile. The conditions noted are these: in vivo.
For data set [17], the system named is Homo sapiens. The experiment in a line: Unbound biliary clearance in iv dosed human after 6 to 8 hrs by duodenal perfusion method. The conditions noted are these: in vivo. It is filed as ADME, organism-based, Bile.
A short description of data set [18]: Drug excretion in iv dosed human assessed as compound excreted into bile after 6 to 8 hrs by duodenal perfusion method. Type of data set: ADME, organism-based. The note with it: read-out: Drug excretion.
Data set [19] concerns Homo sapiens. The experiment in a line: Total biliary clearance in iv dosed human after 6 to 8 hrs by duodenal perfusion method. Type of data set: ADME, organism-based, Bile. The conditions noted are these: in vivo.
Data set [20] can be described thus: Drug excretion in human assessed as compound excreted into bile at 400 mg, po after 24 hrs by T-tube method.
A short description of data set [21]: Drug excretion in rat assessed as compound excreted into bile at 10 mg/kg, iv.
Data set [22] has as its system Rattus norvegicus. Put plainly: Total biliary clearance in iv dosed Wistar rat. Type of data set: ADME, organism-based, Bile. The conditions noted are these: in vivo.
The nature of data set [23]: Drug excretion in iv dosed Wistar rat assessed as compound excreted into bile. It is filed as ADME, organism-based. The conditions noted are these: read-out: Drug excretion.
Data set [24] has as its system Homo sapiens. The experiment in a line: Unbound biliary clearance in iv dosed human after 8 hrs by T-tube method. It is filed as ADME, organism-based, Bile. The conditions noted are these: in vivo.
The subject of data set [25] is Rattus norvegicus. The experiment in a line: Unbound biliary clearance in iv dosed Wistar rat. Type of data set: ADME, organism-based, Bile. The conditions noted are these: in vivo.
A short description of data set [26]: Drug excretion in iv dosed human assessed as compound excreted into bile after 8 hrs by T-tube method. Type of data set: ADME, organism-based. The conditions noted are these: read-out: Drug excretion.
Data set [27] has as its system Homo sapiens. Put plainly: Total biliary clearance in iv dosed human after 8 hrs by T-tube method. It is filed as ADME, organism-based, Bile. The note with it: in vivo.
For data set [28], the system named is Homo sapiens. Put plainly: Unbound biliary clearance in human at 1 nmol/l, iv after 8 hrs. Type of data set: ADME, organism-based, Bile. The conditions noted are these: in vivo.
For data set [29], the system named is Canis familiaris. The experiment in a line: Unbound biliary clearance in iv dosed dog. Type of data set: ADME, organism-based, Canis lupus familiaris, Bile. The conditions noted are these: in vivo.
The subject of data set [30] is Rattus norvegicus. Put plainly: Total biliary clearance in iv dosed Sprague-Dawley rat. It is filed as ADME, organism-based, Bile. The note with it: in vivo.
A short description of data set [31]: Drug excretion in human assessed as compound excreted into bile at 1 nmol/l, iv after 8 hrs. It is filed as ADME, organism-based. The note with it: read-out: Drug excretion.
Data set [32] deals with Homo sapiens. Put plainly: Total biliary clearance in human at 1 nmol/l, iv after 8 hrs by duodenal perfusion method. It is filed as ADME, organism-based, Bile. The conditions noted are these: in vivo.
Data set [33] can be described thus: Drug excretion in iv dosed dog assessed as compound excreted into bile. It is filed as ADME, organism-based, Canis lupus familiaris. The conditions noted are these: read-out: Drug excretion.
Data set [34] is described as follows: Drug excretion in iv dosed Sprague-Dawley rat assessed as compound excreted into bile. It is filed as ADME, organism-based. The conditions noted are these: read-out: Drug excretion.
Data set [35] has as its system Canis familiaris. Put plainly: Total biliary clearance in iv dosed dog. It is filed as ADME, organism-based, Canis lupus familiaris, Bile. The conditions noted are these: in vivo.
Data set [36] concerns Rattus norvegicus. The experiment in a line: Unbound biliary clearance in iv dosed Sprague-Dawley rat. Type of data set: ADME, organism-based, Bile. The conditions noted are these: in vivo.
Data set [37] deals with Rattus norvegicus. The experiment in a line: Unbound biliary clearance in Sprague-Dawley rat at 5 mg/kg, iv. The conditions noted are these: in vivo. On the set-up: dose 5 mg/kg, route intravenous. It is filed as ADME, organism-based, Bile.
Data set [38] relates to Homo sapiens. Put plainly: Unbound biliary clearance in iv dosed human after 24 hrs by T-tube method. It is filed as ADME, organism-based, Bile. The note with it: in vivo.
The test system of data set [39] is Rattus norvegicus. The experiment in a line: Total biliary clearance in Sprague-Dawley rat at 5 mg/kg, iv. It is filed as ADME, organism-based, Bile. Also on record: dose 5 mg/kg, route intravenous. The note with it: in vivo.
The nature of data set [40]: Drug excretion in iv dosed human assessed as compound excreted into bile after 24 hrs by T-tube method. The conditions noted are these: read-out: Drug excretion. Type of data set: ADME, organism-based.
Data set [41] deals with Homo sapiens. Put plainly: Total biliary clearance in iv dosed human after 24 hrs by T-tube method. It is filed as ADME, organism-based, Bile. The conditions noted are these: in vivo.
A short description of data set [42]: Drug excretion in Sprague-Dawley rat assessed as compound excreted into bile at 5 mg/kg, iv. It is filed as ADME, organism-based. Also on record: dose 5 mg/kg, route intravenous. The note with it: read-out: Drug excretion.

For `CCCCC(=O)N(Cc1ccc(-c2ccccc2-c2nnn[nH]2)cc1)[C@H](C(=O)O)C(C)C`, the CL free in the data set on Rattus norvegicus [1] amounted to 378.8 mL/min/kg; in the data set with Homo sapiens [4] it was 10.775 mL/min/kg. Also, the dose excreted at 24 h in [2] came to 88%. The CL with Rattus norvegicus [3] was 12.5 mL/min/kg; in the data set on Homo sapiens [5], 0.431 mL/min/kg.

Consider `CCN1CCN(C(=O)N[C@@H](C(=O)N[C@@H]2C(=O)N3C(C(=O)O)=C(CSc4nnnn4C)CS[C@H]23)c2ccc(O)cc2)C(=O)C1=O` [CEFOPERAZONE], for which the dose excreted in data set [6] amounted to 86%. In addition, the dose excreted at 24 h in data set [7] was 12%.

With `Cc1cc(O)c(C(=O)N[C@@H](C(=O)N[C@@H]2C(=O)N3C(C(=O)O)=C(CSc4nnnn4C)CS[C@H]23)c2ccc(O)cc2)cn1` [CEFPIRAMIDE], the CL in the data set with Canis familiaris [8] turned out to be 0.979 mL/min/kg; in the data set with Rattus norvegicus [12] it was 5.22 mL/min/kg; in the data set on Homo sapiens [16], 0.04 mL/min/kg. Besides, the CL free in the data set with Homo sapiens [9] came to 1 mL/min/kg; with Rattus norvegicus [10], 9.667 mL/min/kg; in the data set on Canis familiaris [11], 1.399 mL/min/kg. Also, the dose excreted at 24 h in data set [13] worked out at 28%. Also, the results for the dose excreted in data set [14] and in [15] were 19% and 58%, respectively.

As for `CO/N=C(\C(=O)N[C@@H]1C(=O)N2C(C(=O)O)=C(CSc3nc(=O)c(=O)[nH]n3C)CS[C@H]12)c1csc(N)n1` [CEFTRIAXONE], the CL in the data set with Canis familiaris [8] came out at 2.5 mL/min/kg; with Rattus norvegicus [12] it was 0.82 mL/min/kg; in the data set with Homo sapiens [19] it was 0.07 mL/min/kg. The CL free in the data set on Rattus norvegicus [10] was 12.73 mL/min/kg; in the data set on Canis familiaris [11], 2.907 mL/min/kg; in the data set with Homo sapiens [17], 0.933 mL/min/kg. In addition, the dose excreted was determined as 30% in data set [18], 63% in [14] and 62% in data set [15].

Take `CC1=C(C(=O)O)N2C(=O)[C@@H](NC(=O)[C@H](N)c3ccccc3)[C@H]2SC1` [CEPHALEXIN ANHYDROUS]: the dose excreted in data set [6] was 32%.

On to `O=C(O)c1cn(C2CC2)c2cc(N3CCNCC3)c(F)cc2c1=O` [CIPROFLOXACIN], for which, in data set [20], the dose excreted at 24 h turned out to be 0.5%. The dose excreted in data set [21] was 10%.

With `O=C([O-])Cc1ccccc1Nc1c(Cl)cccc1Cl.[Na+]` [DICLOFENAC SODIUM], the CL amounted to 0.85 mL/min/kg with Rattus norvegicus [22] and 0.042 mL/min/kg with Homo sapiens [27]. Besides, the dose excreted in data set [23] amounted to 5%. Moreover, the CL free in the data set on Homo sapiens [24] turned out to be 8.4 mL/min/kg; in the data set on Rattus norvegicus [25], 94.44 mL/min/kg. For the same compound, the dose excreted at 8 h in data set [26] is 1%.

In the case of `C[C@H]1O[C@@H](O[C@H]2[C@@H](O)C[C@H](O[C@H]3[C@@H](O)C[C@H](O[C@H]4CC[C@@]5(C)[C@H](CC[C@@H]6[C@@H]5C[C@@H](O)[C@]5(C)[C@@H](C7=CC(=O)OC7)CC[C@]65O)C4)O[C@@H]3C)O[C@@H]2C)C[C@H](O)[C@@H]1O` [DIGOXIN], the CL free in the data set on Homo sapiens [28] is 2.279 mL/min/kg; in the data set on Canis familiaris [29], 2.68 mL/min/kg; in the data set with Rattus norvegicus [36], 4.329 mL/min/kg. For the same compound, the CL with Rattus norvegicus [30] is 3.03 mL/min/kg; in the data set on Homo sapiens [32], 1.595 mL/min/kg; in the data set on Canis familiaris [35], 1.313 mL/min/kg. Further, the dose excreted at 8 h in data set [31] turned out to be 41%. Besides, the dose excreted came out at 7% in data set [33] and 31% in data set [34].

For `COc1cccc2c1C(=O)c1c(O)c3c(c(O)c1C2=O)C[C@@](O)(C(=O)CO)C[C@@H]3O[C@H]1C[C@H](N)[C@H](O)[C@H](C)O1` [DOXORUBICIN], the CL free with Rattus norvegicus [37] is 10.82 mL/min/kg; with Canis familiaris [29], 5.059 mL/min/kg; in the data set on Homo sapiens [38], 7.268 mL/min/kg. In addition, the CL stood at 3.68 mL/min/kg in the data set on Rattus norvegicus [39], 1.72 mL/min/kg in the data set on Canis familiaris [35] and 2.035 mL/min/kg with Homo sapiens [41]. The figures for the dose excreted in data set [33] and in data set [42] were 10% and 17%, respectively. For the same compound, in data set [40], the dose excreted at 24 h came to 14%.
